# Earlier results as cited in PubChem BioAssay AID1259409 (Chemical Carcinogenesis Research Information System (CCRIS), 2018).
# System: rodent chemically induced tumor inhibition, incidence and multiplicity
# Test: CCRIS tumor inhibitor studies
# Conditions: Dose [Inhibitor]: 0, Promoter: NONE USED
compound,measurement,setting,value
C=C(C)[C@H]1CC=C(C)CC1,"tumour outcome (control, treated, inhibition, significance)","Carcinogen: METHYLCHOLANTHRENE, 56-49-5, 0.5 ML 1/WK FOR 1 YR BEGINNING POST CARCINOGEN TREATMENT (STUDY DURATION: 24 MO), Route [Inhibitor]: GAVAGE, Species: MOUSE, Strain/Sex: SWISS/MALE, Target Tissue: Type of Lesion: SKIN: SARCOMA AND CARCINOMA, Dose [Carcinogen]: 0.01 MG ON D 1, 7, 14 AND 21 AFTER BIRTH","5/13 (38%), 2/14 (14%), 63%, not calculated"
same,"tumour outcome (control, treated, inhibition, significance)","Carcinogen: METHYLCHOLANTHRENE, 56-49-5, 0.5 ML 1/WK FOR 1 YR BEGINNING POST CARCINOGEN TREATMENT (STUDY DURATION: 24 MO), Route [Inhibitor]: GAVAGE, Species: MOUSE, Strain/Sex: SWISS/MALE, Target Tissue: Type of Lesion: SPLEEN: LYMPHOMA, Dose [Carcinogen]: 0.01 MG ON D 1, 7, 14 AND 21 AFTER BIRTH","2/13 (15%), 3/14 (21%), -40%, not calculated"
same,"tumour outcome (control, treated, inhibition, significance)","Carcinogen: N-ETHYL-N-HYDROXYETHYLNITROSAMINE, 13147-25-6, 150 MG/KG/D IN CORN OIL 5 D/WK FOR 30 WK BEGINNING POST CARCINOGEN TREATMENT (STUDY DURATION: 32 WK), Route [Inhibitor]: GAVAGE, Species: RAT, Strain/Sex: F344/MALE, Target Tissue: Type of Lesion: LIVER: TUMOR, Dose [Carcinogen]: 500 PPM IN DRINKING WATER FOR 2 WK","26/30 (87%), 17/31 (55%), 37%, p<0.01"
same,"tumour outcome (control, treated, inhibition, significance)","Carcinogen: N-NITROSOMETHYLUREA, 684-93-5, 5% IN DIET BEGINNING 1 WK POST CARCINOGEN TREATMENT AND CONTINUING FOR DURATION OF STUDY (STUDY DURATION: 23 WK), Route [Inhibitor]: ORAL, Species: RAT, Strain/Sex: WISTAR/FEMALE, Target Tissue: Type of Lesion: MAMMARY GLAND: TUMOR, Dose [Carcinogen]: 50 MG/KG ONCE","80%, 50%, 38%, p<0.001"
same,"tumour outcome (control, treated, inhibition, significance)","Carcinogen: N-NITROSOMETHYLUREA, 684-93-5, 5% IN DIET BEGINNING 2 WK PRIOR TO CARCINOGEN TREATMENT AND CONTINUING FOR DURATION OF STUDY (STUDY DURATION: 23 WK), Route [Inhibitor]: ORAL, Species: RAT, Strain/Sex: WISTAR/FEMALE, Target Tissue: Type of Lesion: MAMMARY GLAND: TUMOR, Dose [Carcinogen]: 50 MG/KG ONCE","80%, 45%, 47%, p<0.001"
same,"tumour outcome (control, treated, inhibition, significance)","Carcinogen: N-NITROSOMETHYLUREA, 684-93-5, 5% IN DIET FOR 2 WK PRIOR TO AND 1 WK POST CARCINOGEN TREATMENT (STUDY DURATION: 23 WK), Route [Inhibitor]: ORAL, Species: RAT, Strain/Sex: WISTAR/FEMALE, Target Tissue: Type of Lesion: MAMMARY GLAND: TUMOR, Dose [Carcinogen]: 50 MG/KG ONCE","80%, 74%, 8%, not significant"
same,"tumour outcome (control, treated, inhibition, significance)","Carcinogen: SAFROLE, 94-59-7, 0.5 ML 1/WK FOR 1 YR BEGINNING POST CARCINOGEN TREATMENT (STUDY DURATION: 24 MO), Route [Inhibitor]: GAVAGE, Species: MOUSE, Strain/Sex: SWISS/FEMALE, Target Tissue: Type of Lesion: LUNG: PAPILLARY ADENOCARCINOMA, Dose [Carcinogen]: 0.2 MG ON D 1 AND 7 AFTER BIRTH THEN 0.4 MG ON D 14 AND 21","3/18 (17%), 2/19 (11%), 35%, not calculated"
same,"tumour outcome (control, treated, inhibition, significance)","Carcinogen: SAFROLE, 94-59-7, 0.5 ML 1/WK FOR 1 YR BEGINNING POST CARCINOGEN TREATMENT (STUDY DURATION: 24 MO), Route [Inhibitor]: GAVAGE, Species: MOUSE, Strain/Sex: SWISS/FEMALE, Target Tissue: Type of Lesion: SKIN: SARCOMA, Dose [Carcinogen]: 0.2 MG ON D 1 AND 7 AFTER BIRTH THEN 0.4 MG ON D 14 AND 21","2/18 (11%), 0/19 (0%), 100%, not calculated"
same,"tumour outcome (control, treated, inhibition, significance)","Carcinogen: SAFROLE, 94-59-7, 0.5 ML 1/WK FOR 1 YR BEGINNING POST CARCINOGEN TREATMENT (STUDY DURATION: 24 MO), Route [Inhibitor]: GAVAGE, Species: MOUSE, Strain/Sex: SWISS/MALE, Target Tissue: Type of Lesion: LIVER: HEPATOCELLULAR CARCINOMA, Dose [Carcinogen]: 0.2 MG ON D 1 AND 7 AFTER BIRTH THEN 0.4 MG ON D 14 AND 21","7/24 (29%), 0/24 (0%), 100%, p<0.005"
same,"tumour outcome (control, treated, inhibition, significance)","Carcinogen: SAFROLE, 94-59-7, 0.5 ML 1/WK FOR 1 YR BEGINNING POST CARCINOGEN TREATMENT (STUDY DURATION: 24 MO), Route [Inhibitor]: GAVAGE, Species: MOUSE, Strain/Sex: SWISS/MALE, Target Tissue: Type of Lesion: LUNG: PAPILLARY ADENOCARCINOMA, Dose [Carcinogen]: 0.2 MG ON D 1 AND 7 AFTER BIRTH THEN 0.4 MG ON D 14 AND 21","5/24 (21%), 1/24 (4%), 81%, not calculated"
same,"tumour outcome (control, treated, inhibition, significance)","Carcinogen: SAFROLE, 94-59-7, 0.5 ML 1/WK FOR 1 YR BEGINNING POST CARCINOGEN TREATMENT (STUDY DURATION: 24 MO), Route [Inhibitor]: GAVAGE, Species: MOUSE, Strain/Sex: SWISS/MALE, Target Tissue: Type of Lesion: SKIN: SARCOMA, Dose [Carcinogen]: 0.2 MG ON D 1 AND 7 AFTER BIRTH THEN 0.4 MG ON D 14 AND 21","2/24 (8%), 0/24 (0%), 100%, not calculated"
same,"tumour outcome (control, treated, inhibition, significance)","Carcinogen: SAFROLE, 94-59-7, 0.5 ML 1/WK FOR 1 YR BEGINNING POST CARCINOGEN TREATMENT (STUDY DURATION: 24 MO), Route [Inhibitor]: GAVAGE, Species: MOUSE, Strain/Sex: SWISS/MALE, Target Tissue: Type of Lesion: SPLEEN: LYMPHOMA, Dose [Carcinogen]: 0.2 MG ON D 1 AND 7 AFTER BIRTH THEN 0.4 MG ON D 14 AND 21","6/24 (25%), 1/24 (4%), 84%, not calculated"
same,"tumour outcome (control, treated, inhibition, significance)","Carcinogen: SAFROLE, 94-59-7, 0.5 ML 1/WK FOR 1 YR BEGINNING POST CARCINOMA TREATMENT (STUDY DURATION: 24 MO), Route [Inhibitor]: GAVAGE, Species: MOUSE, Strain/Sex: SWISS/FEMALE, Target Tissue: Type of Lesion: SPLEEN: LYMPHOMA, Dose [Carcinogen]: 0.2 MG ON D 1 AND 7 AFTER BIRTH THEN 0.4 MG ON D 14 AND 21","9/18 (50%), 2/19 (11%), 78%, not calculated"
same,"tumour outcome (control, treated, inhibition, significance)","Carcinogen: TANNIC ACID, 1401-55-4, 0.5 ML 1/WK FOR 1 YR BEGINNING POST CARCINOGEN TREATMENT (STUDY DURATION: 24 MO), Route [Inhibitor]: GAVAGE, Species: MOUSE, Strain/Sex: SWISS/FEMALE, Target Tissue: Type of Lesion: LUNG: PAPILLARY ADENOCARCINOMA, Dose [Carcinogen]: 25 MG/KG BW ON D 1, 7, 14 AND 21 AFTER BIRTH","2/8 (25%), 0/9 (0%), 100%, not calculated"
same,"tumour outcome (control, treated, inhibition, significance)","Carcinogen: TANNIC ACID, 1401-55-4, 0.5 ML 1/WK FOR 1 YR BEGINNING POST CARCINOGEN TREATMENT (STUDY DURATION: 24 MO), Route [Inhibitor]: GAVAGE, Species: MOUSE, Strain/Sex: SWISS/FEMALE, Target Tissue: Type of Lesion: SPLEEN: LYMPHOMA, Dose [Carcinogen]: 25 MG/KG BW ON D 1, 7, 14 AND 21 AFTER BIRTH","4/8 (50%), 3/9 (33%), 34%, not calculated"
same,"tumour outcome (control, treated, inhibition, significance)","Carcinogen: TANNIC ACID, 1401-55-4, 0.5 ML 1/WK FOR 1 YR BEGINNING POST CARCINOGEN TREATMENT (STUDY DURATION: 24 MO), Route [Inhibitor]: GAVAGE, Species: MOUSE, Strain/Sex: SWISS/MALE, Target Tissue: Type of Lesion: LUNG: PAPILLARY ADENOCARCINOMA, Dose [Carcinogen]: 25 MG/KG BW ON D 1, 7, 14 AND 21 AFTER BIRTH","3/12 (25%), 0/12 (0%), 100%, not calculated"
same,"tumour outcome (control, treated, inhibition, significance)","Carcinogen: TANNIC ACID, 1401-55-4, 0.5 ML 1/WK FOR 1 YR BEGINNING POST CARCINOGEN TREATMENT (STUDY DURATION: 24 MO), Route [Inhibitor]: GAVAGE, Species: MOUSE, Strain/Sex: SWISS/MALE, Target Tissue: Type of Lesion: SPLEEN: LYMPHOMA, Dose [Carcinogen]: 25 MG/KG BW ON D 1, 7, 14 AND 21 AFTER BIRTH","5/12 (42%), 3/12 (25%), 40%, not calculated"
